Tested on: KMS.12.BM cells
Assay: KMS.12.BM cell viability assay (Cell Titer-GLO, ATP quantitation)
Format: cell-based
Details: KMS-12-BM, 72 h; human myeloma cells, 3 days, concentration required for 50% cell death
Outline: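 KMS.12.BM human myeloma cells (5000/well, RPMI with 10% FBS) were exposed to a compound concentration range for 3 days. Viable cells were measured by CellTiter-Glo ATP luminescence. IC50 is the concentration giving 50% cell death relative to untreated cells.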

Structure (SMILES)	IC50
Cn1cc(-c2cc(S(C)(=O)=O)cc3c2OC2(CC2)C(=O)N3)c2cn[nH]c2c1=O [Example 65, 8-(6-methyl-7-oxo-6,7-dihydro-1H-pyrazolo[3,4-c]pyridin-4-yl)-6-(methylsulfonyl)spiro[1,4-benzoxazine-2,1′-cyclopropan]-3(4H)-one]	≤ 1000 nM
CN1C(=O)C2(CC2)Oc2c(-c3cn(C)c(=O)c4[nH]ncc34)cc(S(C)(=O)=O)cc21 [Example 66, 4-methyl-8-(6-methyl-7-oxo-6,7-dihydro-1H-pyrazolo[3,4-c]pyridin-4-yl)-6-(methylsulfonyl)spiro[1,4-benzoxazine-2,1′-cyclopropan]-3(4H)-one]	≤ 1000 nM
CC(C)C1Oc2c(cc(S(=O)(=O)N(C)C)cc2-c2cn(C)c(=O)c3[nH]ccc23)NC1=O (stereo not drawn) [Example 67, 2-isopropyl-N,N-dimethyl-8-(6-methyl-7-oxo-6,7-dihydro-1H-pyrrolo[2,3-c]pyridin-4-yl)-3-oxo-3,4-dihydro-2H-1,4-benzoxazine-6-sulfonamide]	≤ 1000 nM
CNS(=O)(=O)c1cc2c(c(-c3cn(C)c(=O)c4[nH]ccc34)c1)OC(C(C)C)C(=O)N2 (stereo not drawn) [Example 68, 2-isopropyl-N-methyl-8-(6-methyl-7-oxo-6,7-dihydro-1H-pyrrolo[2,3-c]pyridin-4-yl)-3-oxo-3,4-dihydro-2H-1,4-benzoxazine-6-sulfonamide]	≤ 1000 nM
CN1C(=O)C(C)(C)Oc2c(-c3cn(C)c(=O)c4[nH]ccc34)cc(S(=O)(=O)N(C)C)cc21 [Example 69, N,N,2,2,4-pentamethyl-8-(6-methyl-7-oxo-6,7-dihydro-1H-pyrrolo[2,3-c]pyridin-4-yl)-3-oxo-3,4-dihydro-2H-1,4-benzoxazine-6-sulfonamide]	≤ 1000 nM
CN(C)S(=O)(=O)c1cc2c(c(-c3cn(C)c(=O)c4[nH]ccc34)c1)OC(C)(C)C(=O)N2 [Example 70, N,N,2,2-tetramethyl-8-(6-methyl-7-oxo-6,7-dihydro-1H-pyrrolo[2,3-c]pyridin-4-yl)-3-oxo-3,4-dihydro-2H-1,4-benzoxazine-6-sulfonamide]	≤ 1000 nM
CC(C)C1Oc2c(-c3cn(C)c(=O)c4[nH]ccc34)cc(S(=O)(=O)N(C)C)cc2N(C)C1=O (stereo not drawn) [Example 71, 2-isopropyl-N,N,4-trimethyl-8-(6-methyl-7-oxo-6,7-dihydro-1H-pyrrolo[2,3-c]pyridin-4-yl)-3-oxo-3,4-dihydro-2H-1,4-benzoxazine-6-sulfonamide]	≤ 1000 nM
Cn1cc(-c2cc(S(=O)(=O)N3CCCCC3)cc3c2OC(C)(C)C(=O)N3)c2cc[nH]c2c1=O [Example 72, 2,2-dimethyl-8-(6-methyl-7-oxo-6,7-dihydro-1H-pyrrolo[2,3-c]pyridin-4-yl)-6-(piperidin-1-ylsulfonyl)-2H-1,4-benzoxazin-3(4H)-one]	≤ 1000 nM
CN1C(=O)C(C)(C)Oc2c(-c3cn(C)c(=O)c4[nH]ccc34)cc(S(=O)(=O)N3CCCCC3)cc21 [Example 73, 2,2,4-trimethyl-8-(6-methyl-7-oxo-6,7-dihydro-1H-pyrrolo[2,3-c]pyridin-4-yl)-6-(piperidin-1-ylsulfonyl)-2H-1,4-benzoxazin-3(4H)-one]	≤ 1000 nM
CC(C)NS(=O)(=O)c1cc2c(c(-c3cn(C)c(=O)c4[nH]ccc34)c1)OC(C)(C)C(=O)N2 [Example 74, N-isopropyl-2,2-dimethyl-8-(6-methyl-7-oxo-6,7-dihydro-1H-pyrrolo[2,3-c]pyridin-4-yl)-3-oxo-3,4-dihydro-2H-1,4-benzoxazine-6-sulfonamide]	≤ 1000 nM
CN1C(=O)C(C)(C)Oc2c(-c3cn(C)c(=O)c4[nH]ccc34)cc(S(C)(=O)=O)cc21 [Example 75, 2,2,4-trimethyl-8-(6-methyl-7-oxo-6,7-dihydro-1H-pyrrolo[2,3-c]pyridin-4-yl)-6-(methylsulfonyl)-2H-1,4-benzoxazin-3(4H)-one]	≤ 1000 nM
CCS(=O)(=O)c1cc(-c2cn(C)c(=O)c3[nH]ccc23)c2c(c1)N(C)C(=O)C(C)(C)O2 [Example 76, 6-(ethylsulfonyl)-2,2,4-trimethyl-8-(6-methyl-7-oxo-6,7-dihydro-1H-pyrrolo[2,3-c]pyridin-4-yl)-2H-1,4-benzoxazin-3(4H)-one]	≤ 1000 nM
CC(C)S(=O)(=O)c1cc(-c2cn(C)c(=O)c3[nH]ccc23)c2c(c1)N(C)C(=O)C(C)(C)O2 [Example 77, 6-(isopropylsulfonyl)-2,2,4-trimethyl-8-(6-methyl-7-oxo-6,7-dihydro-1H-pyrrolo[2,3-c]pyridin-4-yl)-2H-1,4-benzoxazin-3(4H)-one]	≤ 1000 nM
CCS(=O)(=O)c1cc2c(c(-c3cn(C)c(=O)c4[nH]ccc34)c1)OC(C)(C)C(=O)N2 [Example 78, 6-(ethylsulfonyl)-2,2-dimethyl-8-(6-methyl-7-oxo-6,7-dihydro-1H-pyrrolo[2,3-c]pyridin-4-yl)-2H-1,4-benzoxazin-3(4H)-one]	≤ 1000 nM
CC(C)S(=O)(=O)c1cc2c(c(-c3cn(C)c(=O)c4[nH]ccc34)c1)OC(C)(C)C(=O)N2 [Example 79, 6-(isopropylsulfonyl)-2,2-dimethyl-8-(6-methyl-7-oxo-6,7-dihydro-1H-pyrrolo[2,3-c]pyridin-4-yl)-2H-1,4-benzoxazin-3(4H)-one]	≤ 1000 nM
CC(O)c1cc2c(c(-c3cn(C)c(=O)c4[nH]ccc34)c1)OC(C)(C)C(=O)N2 (stereo not drawn) [Example 81, 6-(1-hydroxyethyl)-2,2-dimethyl-8-(6-methyl-7-oxo-6,7-dihydro-1H-pyrrolo[2,3-c]pyridin-4-yl)-2H-1,4-benzoxazin-3(4H)-one]	≤ 1000 nM
CC(O)c1cc(-c2cn(C)c(=O)c3[nH]ccc23)c2c(c1)N(C)C(=O)C(C)(C)O2 (stereo not drawn) [Example 83, 6-(1-hydroxyethyl)-2,2,4-trimethyl-8-(6-methyl-7-oxo-6,7-dihydro-1H-pyrrolo[2,3-c]pyridin-4-yl)-2H-1,4-benzoxazin-3(4H)-one]	≤ 1000 nM
CC(C)C1Oc2c(cc(S(C)(=O)=O)cc2-c2cn(C)c(=O)c3[nH]ncc23)NC1=O (stereo not drawn) [Example 84, 2-isopropyl-8-(6-methyl-7-oxo-6,7-dihydro-1H-pyrazolo[3,4-c]pyridin-4-yl)-6-(methylsulfonyl)-2H-1,4-benzoxazin-3(4H)-one]	≤ 1000 nM
